Results as given in PMC3229523, “Identification of Lactoferricin B Intracellular Targets Using an Escherichia coli Proteome Chip” (PLoS ONE, 2011).
Entries after “also recorded” stand apart in the source; their conditions may differ. Ends that are not written are not given here. * marks the point of attachment. Biotin = O=C1N[C@H]2[C@H](CS[C@H]2CCCCC(=O)*)N1

What was measured:
NrdF = assay: Fluorescence polarization assay, NrdF; assay type: binding, E. coli
Text: (§1) FP assays, investigations of the binding between two molecules in a homogeneous aqueous environment, were used to validate the identified 153 proteins. […] If a fluorophore only binds to a small molecule, such as peptide, the rotation of the complex is fast and the light emits in a different plane of polarization. Therefore, the degree of polarization is low. However, once a fluorophore binds to a large molecule, the bound complex is stimulated with polarized light. The light emits in the same polarized plane, and the complex is maintained in the same plane of polarization, causing an increase in the degree of polarization [22]–[24]. The amount of molecules binding to a fluorophore influences the degree of polarization. In this study, LfcinB was labeled with DyLight™ 549 as a reference value. Once the protein bound to LfcinB, like a fluorophore binds to a large molecule, a high degree of polarization is expected.
(§2) Before the assays, LfcinB was labeled with DyLight™ 549 and tested proteins were quantified with a Pierce® bicinchoninic acid (BCA™) protein assay (Thermo). To label the LfcinB, DyLight™ 549-NHS ester and LfcinB (68∶1, mole/mole) were mixed in PBS at room temperature for 1 h, a D-Salt™ polyacrylamide desalting column (Thermo) was used to remove excess dye and the labeling efficiency of the eluted solution was calculated. […]

NrdD = assay: Fluorescence polarization assay, NrdD; assay type: binding, E. coli; settings: 100 nM DyLight 549-labeled LfcinB; protein 0.025-0.4 µM; data not shown
Text: as §1, §2

RecC = assay: Fluorescence polarization assay, RecC; assay type: binding, E. coli; settings: 100 nM DyLight 549-labeled LfcinB; protein 0.025-0.4 µM; data not shown
Text: as §1, §2

YqiA = assay: Fluorescence polarization assay, YqiA; assay type: binding, E. coli; settings: 100 nM DyLight 549-labeled LfcinB; protein 0.025-0.4 µM; data not shown
Text: as §1, §2

HyaF = assay: Fluorescence polarization assay, HyaF; assay type: binding, E. coli
Text: as §1, §2

GldA = assay: Fluorescence polarization assay, GldA; assay type: binding, E. coli; settings: 100 nM DyLight 549-labeled LfcinB; protein 0.025-0.4 µM; data not shown
Text: as §1, §2

Ppc = assay: Fluorescence polarization assay, Ppc; assay type: binding, E. coli; settings: 100 nM DyLight 549-labeled LfcinB; protein 0.025-0.4 µM; data not shown
Text: as §1, §2

[1] = test system: isogenic parent strain and the knockout strains; assay: Knockout assay, isogenic parent and knockout strains together; assay type: cell-based, E. coli K-12; settings: 32 µM LfcinB, LB medium, 37°C
Experimental: (§3) The E. coli K-12 BW25113 (isogenic parent) strain and the 16 knockout strains were obtained from the E. coli Genetic Resources at the Coli Genetic Stock Center (CGSC) at Yale University. The strains were inoculated into LB medium, and incubated at 37°C with shaking. After 16 h of incubation, the cultures were diluted to approximately 10^7 CFU/ml with LB medium. Thirty-two µM of LfcinB were then added to the cultures in a 96-well plate. PBS was used as a negative control. Cultures with LfcinB or PBS were then incubated at 37°C with shaking in a microplate reader and the growth was observed by measuring the OD595 value every 20 min for 7 h 20 min.

YdaU = assay: Fluorescence polarization assay, YdaU; assay type: binding, E. coli; settings: 100 nM DyLight 549-labeled LfcinB; protein 0.025-0.4 µM; data not shown
Text: as §1, §2

E. coli = settings: cited from earlier work
Experimental: Natural antimicrobial peptides are pervasive in plants, insects and animals. […] It is possible that LfcinB served as nutrient for bacteria in the beginning of the assay. […] In the middle part (2–4 h) of the growth curves, the ...

[2] = test system: other 15 knockout strains; assay: Knockout assay, other 15 knockout strains; assay type: cell-based, E. coli K-12; settings: 32 µM LfcinB, LB medium, 37°C
Experimental: as §3

nrdF knockout mutant = assay: Knockout assay, nrdF knockout mutant; assay type: cell-based, E. coli K-12; settings: 32 µM LfcinB, LB medium, 37°C
Experimental: as §3

bacteria = settings: cited from earlier work
Text: Natural antimicrobial peptides are pervasive in plants, insects and animals.

pyruvate in E. coli = assay: Pyruvate assay: pyruvate level in E. coli (OD570); assay type: cell-based, E. coli MG1655; settings: 32 µM LfcinB
Text: To confirm one of the mechanisms of LfcinB action in pyruvate metabolism, a minimal medium was chosen; because general LB medium contains many carbon sources, including sugars, alcohols and organic acids, this minimal medium allowed glucose to be the sole carbon source in the pyruvate assays. Minimal medium consisted of 6 g/l NaH2PO4, 3 g/l K2HPO4, 0.5 g/l NaCl, 0.12 g/l MgSO4, 1 g/l NH4Cl, 0.01 g/l CaCl2 and 5 g/l glucose. A 0.22 µm filter (Millex®GS, Millipore) was used to filter the minimal medium. E. coli MG1655 was first inoculated into the minimal medium and incubated at 37°C for 16 h with shaking as a preculture. The preculture was diluted 100-fold with the minimal medium in 96-well plate, and 32 µM of LfcinB were added. The mixture was incubated with shaking in a microplate reader at 37°C, and the absorbance was measured after 9 h. Finally, the mixture was harvested by centrifugation at 3452 g for 5 min at 4°C, and each supernatant was removed. The pellets were then stored at −80°C.
To extract the pyruvate in E. coli, hot water extraction was used, a procedure adapted from Canelas et al.. Boiling water was poured into the pellet and it was immediately vortexed. The mixture was then placed in a water bath at 95–100°C for 15 min and cooled on ice. […] Finally, the OD570 of the mixtures was measured by a microplate reader to detect the color intensity.

Lactoferricin B (Biotin-FKCRRWQWRMKKLGAPSITCVRRAF; ends and bridges not checked) [LfcinB]
degree of polarization vs BSA (NrdF; 100 nM DyLight 549-labeled LfcinB, protein 0.025-0.4 µM, PBS, 0.005% BSA, 0.01% Triton X-100, room temperature, 1 h, Figure 5B): higher polarization than the negative control
concentration dependence of polarization (NrdF; NrdF, two-fold dilution 0.4 µM to 0.025 µM, 100 nM labeled LfcinB): increased with increasing concentrations of these 4 proteins
binding to NrdD (NrdD): confirmed to bind to LfcinB
binding to RecC (RecC): confirmed to bind to LfcinB
binding to YqiA (YqiA): confirmed to bind to LfcinB
degree of polarization vs BSA (HyaF; 100 nM DyLight 549-labeled LfcinB, protein 0.025-0.4 µM, PBS, 0.005% BSA, 0.01% Triton X-100, room temperature, 1 h, ex 540 nm, em 590 nm, Figure 5A): higher polarization than the negative control
concentration dependence of polarization (HyaF; HyaF, two-fold dilution 0.4 µM to 0.025 µM, 100 nM labeled LfcinB): increased with increasing concentrations of these 4 proteins
binding to GldA (GldA): confirmed to bind to LfcinB
binding to Ppc (Ppc): confirmed to bind to LfcinB
growth curves, initial part (0–1.5 h), with vs without LfcinB ([1]; 0–1.5 h): higher growth curves than the strains grown without LfcinB
slopes of growth curves, middle part (2–4 h), with vs without LfcinB ([1]; 2–4 h): lower than the slopes of the strains without LfcinB
binding to YdaU (YdaU): confirmed to bind to LfcinB
DNA synthesis at initiation of LfcinB into the medium (E. coli): DNA synthesis was increased
DNA, RNA and protein synthesis of E. coli (E. coli; sublethal concentration): inhibited DNA, RNA and protein synthesis of E. coli
filamentation during an SOS-response (E. coli; sublethal concentration): induced filamentation during an SOS-response
growth with LfcinB [2]: the growth was inhibited by LfcinB
growth curve with vs without LfcinB (nrdF knockout mutant): significant inhibited
bacterial growth inhibition and membrane effect (bacteria): inhibits bacterial growth by impeding intracellular activities without destroying membrane integrity or penetrating the cytoplasmic membrane
mechanism of antimicrobial activity (bacteria): pore-forming mechanism
pyruvate (OD570) level after 9 h with vs without LfcinB (pyruvate in E. coli; minimal medium): accumulation of pyruvate; also recorded: higher than the level in E. coli without LfcinB
Value of pyruvate (OD570) after 9 h incubation (pyruvate in E. coli; minimal medium with glucose, 37°C, hot water extraction, pyruvate assay kit, E. coli without LfcinB 1.976±0.084): 2.526±0.338
